Reference: ChEMBL document CHEMBL3399993, “Design and synthesis of novel quinoline-aminopiperidine hybrid analogues as Mycobacterium tuberculosis DNA gyraseB inhibitors” (Bioorg Med Chem, 2015)
In brackets after ≈: the same amount, converted by molar mass. Activity calls are given as the source filed them. No cut-off for these calls is given here.

Experiments:
[1] = target: DNA gyrase subunit B (Escherichia coli) (UniProt P0AES6); experiment: Inhibition of Escherichia coli GyrB at 100 uM
[2] = Cytotoxicity against mouse RAW264.7 cells assessed as inhibition of cell growth at 50 uM after 48 hrs by MTT assay; format: cell-based; conditions: read-out: GI
Danio rerio [3] = organism: Danio rerio; experiment: Cardiotoxic inhibition of ERG channel in Zebrafish assessed as change in heart rate of ventricles at 1 uM to 30 uM after 4 hrs; format: organism-based; conditions: in vivo
Danio rerio [4] = organism: Danio rerio; experiment: Cardiotoxic inhibition of ERG channel in Zebrafish assessed as change in atrio ventricular beats ratio at 1 uM to 30 uM after 4 hrs; format: organism-based, Cardiac ventricle; conditions: in vivo
[5] = target: DNA gyrase subunit A/DNA gyrase subunit B (Mycobacterium tuberculosis (strain ATCC 25618 / H37Rv), UniProt P9WG45+P9WG47); experiment: Inhibition of Mycobacterium tuberculosis GyrA/GyrB using relaxed pBR322 substrate incubated for 30 mins by ethidium bromide staining and electrophoresis based DNA supercoiling assay
Danio rerio [6] = organism: Danio rerio; experiment: Cardiotoxic inhibition of ERG channel in Zebrafish assessed as change in heart rate of atria at 1 uM to 30 uM after 4 hrs; format: organism-based; conditions: in vivo
[7] = target: DNA gyrase subunit B (Mycobacterium smegmatis) (UniProt P0C559); experiment: Binding affinity to Mycobacterium smegmatis GyrB assessed as increase in protein-compound complex stability by measuring right side positive shift of melting temperature by SYPRO-orange dye based differential scanning fluorimetry; conditions: Mycolicibacterium smegmatis
[8] = target: DNA gyrase subunit B (Staphylococcus aureus) (UniProt P0A0K8); experiment: Inhibition of Staphylococcus aureus GyrB at 100 uM
DNA gyrase subunit B = DNA gyrase subunit B (Mycobacterium smegmatis, UniProt P0C559); experiment: Inhibition of Mycobacterium smegmatis GyrB ATPase activity expressed in Escherichia coli BL21 (DE3) pLysS cells after 100 mins by inorganic phosphate release detection based malachite green reagent assay; set-up: species or system Mycolicibacterium smegmatis
[9] = system: Mycobacterium tuberculosis; experiment: Antimycobacterial activity against Mycobacterium tuberculosis H37Rv ATCC 27294 incubated for 7 days by microplate alamar blue assay method; format: functional; conditions: H37Rv ATCC 27294, 168 h
Danio rerio [10] = organism: Danio rerio; experiment: Cardiotoxic inhibition of ERG channel in Zebrafish assessed as change in heart rate of ventricles at 20 uM after 4 hrs; format: organism-based; conditions: in vivo
Danio rerio [11] = organism: Danio rerio; experiment: Cardiotoxic inhibition of ERG channel in Zebrafish assessed as change in atrio ventricular beats ratio at 20 uM after 4 hrs; format: organism-based, Cardiac ventricle; conditions: in vivo
Danio rerio [12] = organism: Danio rerio; experiment: Cardiotoxic inhibition of ERG channel in Zebrafish assessed as change in heart rate of atria at 20 uM after 4 hrs; format: organism-based; conditions: in vivo
Danio rerio [13] = organism: Danio rerio; experiment: Cardiotoxic inhibition of ERG channel in Zebrafish assessed as change in atrio ventricular beats ratio at 30 uM after 4 hrs; format: organism-based, Cardiac ventricle; conditions: in vivo
Danio rerio [14] = organism: Danio rerio; experiment: Cardiotoxic inhibition of ERG channel in Zebrafish assessed as change in heart rate of ventricles at 1 uM to 10 uM after 4 hrs; format: organism-based; conditions: in vivo
Danio rerio [15] = organism: Danio rerio; experiment: Cardiotoxic inhibition of ERG channel in Zebrafish assessed as change in atrio ventricular beats ratio at 1 to 10 uM after 4 hrs; format: organism-based, Cardiac ventricle; conditions: in vivo
Danio rerio [16] = organism: Danio rerio; experiment: Cardiotoxic inhibition of ERG channel in Zebrafish assessed as change in heart rate of atria at 30 uM after 4 hrs; format: organism-based; conditions: in vivo
Danio rerio [17] = organism: Danio rerio; experiment: Cardiotoxic inhibition of ERG channel in Zebrafish assessed as change in heart rate of ventricles at 30 uM after 4 hrs; format: organism-based; conditions: in vivo
Danio rerio [18] = organism: Danio rerio; experiment: Cardiotoxic inhibition of ERG channel in Zebrafish assessed as change in heart rate of atria at 1 uM to 10 uM after 4 hrs; format: organism-based; conditions: in vivo

Sequence of DNA gyrase subunit A/DNA gyrase subunit B (P9WG45 whole entry): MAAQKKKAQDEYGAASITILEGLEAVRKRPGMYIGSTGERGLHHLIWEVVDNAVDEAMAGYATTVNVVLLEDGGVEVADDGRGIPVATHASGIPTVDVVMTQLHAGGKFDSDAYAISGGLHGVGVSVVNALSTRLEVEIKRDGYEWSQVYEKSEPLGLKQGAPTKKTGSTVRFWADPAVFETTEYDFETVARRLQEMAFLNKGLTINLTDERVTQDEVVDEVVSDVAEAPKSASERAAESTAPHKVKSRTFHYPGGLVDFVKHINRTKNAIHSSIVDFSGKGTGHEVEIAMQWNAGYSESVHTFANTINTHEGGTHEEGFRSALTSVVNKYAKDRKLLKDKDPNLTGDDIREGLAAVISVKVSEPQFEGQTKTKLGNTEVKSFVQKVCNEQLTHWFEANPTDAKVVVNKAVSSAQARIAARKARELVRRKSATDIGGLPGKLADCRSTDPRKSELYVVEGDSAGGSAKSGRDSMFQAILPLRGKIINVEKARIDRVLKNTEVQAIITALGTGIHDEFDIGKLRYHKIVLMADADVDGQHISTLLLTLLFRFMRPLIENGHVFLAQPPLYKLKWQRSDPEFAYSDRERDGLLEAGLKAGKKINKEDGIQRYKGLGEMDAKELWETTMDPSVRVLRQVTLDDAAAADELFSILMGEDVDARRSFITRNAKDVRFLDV
Sequence of DNA gyrase subunit A/DNA gyrase subunit B (P9WG47 whole entry): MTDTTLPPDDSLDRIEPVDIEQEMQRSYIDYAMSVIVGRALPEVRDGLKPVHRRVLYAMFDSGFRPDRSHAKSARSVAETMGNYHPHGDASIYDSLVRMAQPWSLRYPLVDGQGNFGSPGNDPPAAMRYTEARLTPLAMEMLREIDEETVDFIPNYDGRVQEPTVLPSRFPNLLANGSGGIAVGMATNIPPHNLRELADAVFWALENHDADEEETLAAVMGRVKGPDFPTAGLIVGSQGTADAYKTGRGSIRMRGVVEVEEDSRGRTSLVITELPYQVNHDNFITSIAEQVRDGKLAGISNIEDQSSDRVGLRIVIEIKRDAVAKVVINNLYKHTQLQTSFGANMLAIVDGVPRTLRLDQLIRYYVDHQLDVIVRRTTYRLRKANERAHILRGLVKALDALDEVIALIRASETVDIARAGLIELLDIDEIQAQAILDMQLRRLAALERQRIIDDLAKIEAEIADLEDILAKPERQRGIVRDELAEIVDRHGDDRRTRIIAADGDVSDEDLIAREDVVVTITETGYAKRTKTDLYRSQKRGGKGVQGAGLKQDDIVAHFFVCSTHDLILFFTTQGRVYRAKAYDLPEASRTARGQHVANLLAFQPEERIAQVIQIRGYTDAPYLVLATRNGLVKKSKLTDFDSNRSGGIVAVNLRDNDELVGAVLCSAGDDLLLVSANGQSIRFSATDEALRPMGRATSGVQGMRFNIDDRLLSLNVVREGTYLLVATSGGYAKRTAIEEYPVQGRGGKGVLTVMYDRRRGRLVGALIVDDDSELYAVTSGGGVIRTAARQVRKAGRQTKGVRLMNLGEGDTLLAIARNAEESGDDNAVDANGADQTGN
Sequence of DNA gyrase subunit B (P0C559 whole entry): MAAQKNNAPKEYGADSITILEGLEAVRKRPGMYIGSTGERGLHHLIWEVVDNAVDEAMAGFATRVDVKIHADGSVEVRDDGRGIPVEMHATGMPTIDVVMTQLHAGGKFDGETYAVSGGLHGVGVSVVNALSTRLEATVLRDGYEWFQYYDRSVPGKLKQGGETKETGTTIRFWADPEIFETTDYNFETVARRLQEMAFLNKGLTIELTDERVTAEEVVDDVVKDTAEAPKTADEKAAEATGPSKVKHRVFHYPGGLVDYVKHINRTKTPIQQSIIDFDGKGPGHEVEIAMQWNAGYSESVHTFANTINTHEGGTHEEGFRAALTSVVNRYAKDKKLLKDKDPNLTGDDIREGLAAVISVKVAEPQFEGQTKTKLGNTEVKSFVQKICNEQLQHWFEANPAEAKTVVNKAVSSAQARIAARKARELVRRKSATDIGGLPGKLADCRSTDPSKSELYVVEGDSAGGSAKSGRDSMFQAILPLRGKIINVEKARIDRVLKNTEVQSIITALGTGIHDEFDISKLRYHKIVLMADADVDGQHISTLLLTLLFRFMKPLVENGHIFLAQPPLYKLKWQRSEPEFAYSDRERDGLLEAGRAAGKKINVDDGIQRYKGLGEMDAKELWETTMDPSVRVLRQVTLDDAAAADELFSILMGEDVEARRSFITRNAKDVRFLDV
Sequence of DNA gyrase subunit B (Staphylococcus aureus) (P0A0K8 2-644 limits assumed): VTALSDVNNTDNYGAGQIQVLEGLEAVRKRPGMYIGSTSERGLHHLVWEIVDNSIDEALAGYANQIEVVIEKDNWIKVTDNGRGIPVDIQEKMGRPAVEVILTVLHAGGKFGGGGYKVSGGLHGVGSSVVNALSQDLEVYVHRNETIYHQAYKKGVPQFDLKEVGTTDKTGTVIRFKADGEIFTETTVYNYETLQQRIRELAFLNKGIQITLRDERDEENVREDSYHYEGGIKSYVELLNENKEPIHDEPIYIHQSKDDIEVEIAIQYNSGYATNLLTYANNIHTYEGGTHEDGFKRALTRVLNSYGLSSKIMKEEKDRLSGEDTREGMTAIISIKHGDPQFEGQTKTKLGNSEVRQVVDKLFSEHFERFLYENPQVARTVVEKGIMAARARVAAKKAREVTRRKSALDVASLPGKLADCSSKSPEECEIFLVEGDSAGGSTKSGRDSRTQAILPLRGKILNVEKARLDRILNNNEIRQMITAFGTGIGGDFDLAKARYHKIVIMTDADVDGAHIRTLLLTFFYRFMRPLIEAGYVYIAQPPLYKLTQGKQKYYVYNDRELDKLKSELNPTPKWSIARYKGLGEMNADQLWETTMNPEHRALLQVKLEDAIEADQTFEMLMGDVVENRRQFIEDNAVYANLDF
Sequence of DNA gyrase subunit B (Mycobacterium smegmatis) (P0C559 2-675 limits assumed): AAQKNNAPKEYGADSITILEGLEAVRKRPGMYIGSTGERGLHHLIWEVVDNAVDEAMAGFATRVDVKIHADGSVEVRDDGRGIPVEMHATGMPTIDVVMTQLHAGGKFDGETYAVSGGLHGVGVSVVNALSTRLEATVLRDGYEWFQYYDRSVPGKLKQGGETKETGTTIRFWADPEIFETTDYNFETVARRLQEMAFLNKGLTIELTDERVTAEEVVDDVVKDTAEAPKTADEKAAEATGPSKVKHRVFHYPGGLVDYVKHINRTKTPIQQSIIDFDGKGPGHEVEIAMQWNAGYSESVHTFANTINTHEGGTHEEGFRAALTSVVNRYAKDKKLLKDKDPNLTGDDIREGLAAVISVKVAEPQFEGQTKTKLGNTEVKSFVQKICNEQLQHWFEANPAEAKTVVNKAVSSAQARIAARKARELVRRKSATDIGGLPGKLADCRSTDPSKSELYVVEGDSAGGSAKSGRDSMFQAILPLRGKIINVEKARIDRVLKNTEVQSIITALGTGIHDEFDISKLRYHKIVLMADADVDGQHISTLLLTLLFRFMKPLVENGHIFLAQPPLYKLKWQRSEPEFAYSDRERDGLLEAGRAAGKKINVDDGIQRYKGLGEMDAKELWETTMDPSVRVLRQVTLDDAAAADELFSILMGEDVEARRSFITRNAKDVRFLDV

Row | SMILES | inhibition at 48 h, 50 µM [2] [%] | IC50 [5] [µM] | IC50 (DNA gyrase subunit B) [µM] | MIC [9] [µM] | also measured
1 | COc1ccc2nc(C)cc(N3CCC(NC(=S)Nc4ccc(Cl)cc4)CC3)c2c1 | 29.7 | 0.62 | 0.95 | 3.47 (≈ 1.53 µg/mL) | inhibition [1]: inactive; Activity (Danio rerio [3]): Non-toxic; Activity (Danio rerio [4]): Non-toxic; Activity (Danio rerio [6]): Non-toxic; ΔTm [7]: 3.1 °C; inhibition [8]: inactive
2 | CC(C)(C)c1ccc(C(O)CCCN2CCC(C(O)(c3ccccc3)c3ccccc3)CC2)cc1 (stereo not drawn) [TERFENADINE] | – | – | – | – | Activity (Danio rerio [10]): Toxic; Activity (Danio rerio [11]): Toxic; Activity (Danio rerio [12]): Toxic
3 | COc1ccc2nc(C)cc(N3CCC(NC(=S)Nc4ccc(C)cc4)CC3)c2c1 | 44.9 | 7.94 | 11.1 | 7.28 (≈ 3.06 µg/mL) | Activity (Danio rerio [13]): Toxic; Activity (Danio rerio [14]): Non-toxic; Activity (Danio rerio [15]): Non-toxic; Activity (Danio rerio [16]): Toxic; Activity (Danio rerio [17]): Toxic; Activity (Danio rerio [18]): Non-toxic
4 | Cc1cc(N2CCC(NC(=S)Nc3ccc(F)cc3)CC2)c2cc(F)ccc2n1 | 33.9 | 23.5 | 45.9 | 63.3 (≈ 26.1 µg/mL) | –
5 | COc1ccc(NC(=S)NC2CCN(c3cc(C)nc4ccccc34)CC2)cc1 | 21.9 | 13.5 | 19.4 | 30.2 (≈ 12.3 µg/mL) | –
6 | COc1ccc(NC(=O)NC2CCN(c3cc(C)nc4ccc(C(F)(F)F)cc34)CC2)cc1 | 29 | 19.8 | 41.2 | 54.3 (≈ 24.9 µg/mL) | –
7 | Cc1ccc(NC(=S)NC2CCN(c3cc(C)nc4ccccc34)CC2)cc1 | 21.6 | 2.66 | 7.26 | 15.7 (≈ 6.12 µg/mL) | –
8 | Cc1cc(N2CCC(NC(=S)Nc3ccc(Cl)cc3)CC2)c2cc(F)ccc2n1 | 32.3 | 21.5 | 41.1 | 31.7 (≈ 13.6 µg/mL) | –
9 | Cc1ccc(NC(=O)NC2CCN(c3cc(C)nc4ccc(F)cc34)CC2)cc1 | 39.7 | 8.83 | 15 | 16 (≈ 6.27 µg/mL) | –
10 | Cc1cc(N2CCC(NC(=S)Nc3ccccc3)CC2)c2ccccc2n1 | 11.8 | 9.4 | 12.7 | 16.6 (≈ 6.25 µg/mL) | –
11 | Cc1cc(N2CCC(NC(=S)Nc3ccc(F)cc3)CC2)c2ccccc2n1 | 32.9 | 16.7 | 29.8 | 36.1 (≈ 14.3 µg/mL) | –
12 | Cc1cc(N2CCC(NC(=S)Nc3ccc(F)cc3)CC2)c2cc(C(F)(F)F)ccc2n1 | 50.7 | 22.8 | 48.5 | 66.5 (≈ 30.8 µg/mL) | –
13 | Cc1cc(N2CCC(NC(=O)Nc3ccccc3)CC2)c2cc(C(F)(F)F)ccc2n1 | 20.1 | 8.3 | 14.9 | 29.4 (≈ 12.6 µg/mL) | –
